The source of these data is the PolyMetriX glass transition set.

The structures appear in SMILES notation.

Compound `*C(=O)Nc1ccc(Oc2cccc(Oc3ccc(NC(=O)c4ccc5c(c4)C(=O)N(c4cccc(Oc6cccc(Oc7cccc(N8C(=O)c9ccc(*)cc9C8=O)c7)c6C#N)c4)C5=O)cc3)c2)cc1` (repeat unit) showed a glass transition temperature of 207.00 °C.

As for `*C(=O)c1ccc2c(c1)C(=O)N(c1cc(C(c3ccc(O)c(N4C(=O)c5ccc(*)cc5C4=O)c3)(C(F)(F)F)C(F)(F)F)ccc1O)C2=O` (repeat unit), the glass transition temperature was 315.00 °C.

Consider `*CC1CCCC(CN2C(=O)c3ccc(C(=O)c4ccc5c(c4)C(=O)N(*)C5=O)cc3C2=O)C1` (repeat unit), for which the glass transition temperature is 213.00 °C.

`*CCCCCCCCCCCCN1C(=O)c2ccc(C(=O)c3ccc4c(c3)C(=O)N(*)C4=O)cc2C1=O` (repeat unit) had a glass transition temperature of 87.50 °C.

The compound `*CCCCCCCCCCN1C(=O)c2ccc(Oc3ccc4c(c3)C(=O)N(*)C4=O)cc2C1=O` (repeat unit) had a glass transition temperature of 91.50 °C.

`*CCCCCCN1C(=O)c2ccc(Oc3ccc4c(c3)C(=O)N(*)C4=O)cc2C1=O` (repeat unit) yielded a glass transition temperature of 164.00 °C.

The compound `*CCOCCOCCN1C(=O)c2ccc(C(=O)Oc3ccc4cc(OC(=O)c5ccc6c(c5)C(=O)N(*)C6=O)ccc4c3)cc2C1=O` (repeat unit) returned a glass transition temperature of 105.00 °C.

`*OC(=O)Oc1ccc2c(c1)Oc1cc(*)ccc1C21c2ccccc2-c2ccccc21` (repeat unit): the glass transition temperature amounted to 295.00 °C.

Compound `*OC(=O)c1ccc(C(=O)Oc2ccc3c(c2)Oc2cc(*)ccc2C32c3ccccc3-c3ccccc32)cc1` (repeat unit) gave a glass transition temperature of 290.00 °C.

Take `*OP(=O)(Oc1ccccc1)Oc1ccc(S(=O)(=O)c2ccc(*)cc2)cc1` (repeat unit): the glass transition temperature is 100.50 °C.

`*Oc1cc(Oc2cccc(NC(=O)c3cc(Oc4ccc(C(=O)O)c(C(=O)Nc5cccc(*)c5)c4)ccc3C(=O)O)c2)ccc1C#N` (repeat unit) had a glass transition temperature of 195.80 °C.

As to `*Oc1ccc(*)cc1` (repeat unit), the glass transition temperature turned out to be 85.00 °C.

As for `*Oc1ccc(S(=O)(=O)c2ccc(Oc3c(C)cc(-c4cc(C)c(*)c(C)c4Br)c(Br)c3C)cc2)cc1` (repeat unit), the glass transition temperature came out at 298.20 °C.

With `*Oc1ccc(S(=O)(=O)c2ccc(Oc3ccc4c(=O)n5c6cc(-c7ccc8c(c7)nc7c9ccc(*)c%10cccc(c(=O)n87)c%109)ccc6nc5c5cccc3c45)cc2)cc1` (repeat unit), the glass transition temperature came to 415.00 °C.

`*Oc1ccc(Sc2ccc(OC3(F)C(*)(F)C(F)(F)C3(F)F)cc2)cc1` (repeat unit): the glass transition temperature turned out to be 78.00 °C.

`*Oc1ccc(Sc2ccc(Oc3ccc4c(=O)n5c6cc(-c7ccc8c(c7)nc7c9ccc(*)c%10cccc(c(=O)n87)c%109)ccc6nc5c5cccc3c45)cc2)cc1` (repeat unit): the glass transition temperature turned out to be 386.00 °C.

`*Oc1ccc2cc(C(*)=O)ccc2c1` (repeat unit) yielded a glass transition temperature of 147.00 °C.

Compound `*Oc1ccc2cc(OC(=O)c3cccc(Oc4ccc(Oc5cccc(C(*)=O)c5)cc4)c3)ccc2c1` (repeat unit) returned a glass transition temperature of 125.00 °C.

Compound `*Oc1ccc2cc(Oc3ccc4c(=O)n5c6cc(-c7ccc8c(c7)nc7c9ccc(*)c%10cccc(c(=O)n87)c%109)ccc6nc5c5cccc3c45)ccc2c1` (repeat unit) had a glass transition temperature of 413.00 °C.

In turn, `*Oc1ccc2ccc(OC(=O)c3ccc(Oc4ccc(C(*)=O)cc4)cc3)cc2c1` (repeat unit) showed a glass transition temperature of 142.00 °C.

`*Oc1cccc(C(F)(F)C(F)(F)C(F)(F)c2cccc(OC(=O)c3cccc(C(F)(F)C(F)(F)C(F)(F)c4cccc(C(*)=O)c4)c3)c2)c1` (repeat unit) displayed a glass transition temperature of 74.00 °C.

Compound `*Oc1cccc(Oc2ccc(Oc3cccc(OC(=O)c4ccc(C(*)=O)cc4)c3)cc2)c1` (repeat unit) gave a glass transition temperature of 103.00 °C.

Compound `*Oc1cccc2cc(OC(=O)c3ccc(Oc4ccc(C(*)=O)cc4)cc3)ccc12` (repeat unit) had a glass transition temperature of 179.00 °C.

`*c1ccc(-c2ccc(N3C(=O)c4ccc(Oc5ccc6c(c5)C(=O)N(*)C6=O)cc4C3=O)cc2)cc1` (repeat unit) returned a glass transition temperature of 286.00 °C.

In the case of `*c1ccc(C(=O)c2ccc(C(=O)c3ccc(S(*)(=O)=O)cc3)cc2)cc1` (repeat unit), the glass transition temperature worked out at 213.50 °C.

Compound `*c1ccc(C(c2ccc(N3C(=O)c4ccc(Oc5ccc6ccc(Oc7ccc8c(c7)C(=O)N(*)C8=O)cc6c5)cc4C3=O)cc2)(C(F)(F)F)C(F)(F)F)cc1` (repeat unit) displayed a glass transition temperature of 256.00 °C.

For `*c1ccc(Oc2ccc(-c3c(-c4ccccc4)nc4ccc(Oc5ccc6nc(-c7ccccc7)c(*)c(-c7ccccc7)c6c5)cc4c3-c3ccccc3)cc2)cc1` (repeat unit), the glass transition temperature was 252.50 °C.

Regarding `*c1ccc(Oc2ccc(-c3ccc(Oc4ccc(N5C(=O)c6ccc(Oc7ccc(Sc8ccc(Oc9ccc%10c(c9)C(=O)N(*)C%10=O)cc8)cc7)cc6C5=O)cc4)cc3)cc2)cc1` (repeat unit), the glass transition temperature came to 205.00 °C.

`*c1ccc(Oc2ccc(-c3ccc(Oc4ccc(N5C(=O)c6ccc(Oc7ccc8cc(Oc9ccc%10c(c9)C(=O)N(*)C%10=O)ccc8c7)cc6C5=O)cc4)cc3)cc2)cc1` (repeat unit) showed a glass transition temperature of 230.00 °C.

On to `*c1ccc(Oc2ccc(-c3ccc(Oc4ccc(N5C(=O)c6ccc(Oc7cccc(Oc8ccc9c(c8)C(=O)N(*)C9=O)c7)cc6C5=O)cc4)cc3)cc2)cc1` (repeat unit), for which the glass transition temperature stood at 200.00 °C.

For `*c1ccc(Oc2ccc(N3C(=O)c4ccc(Oc5ccc6ccc(Oc7ccc8c(c7)C(=O)N(*)C8=O)cc6c5)cc4C3=O)cc2)cc1` (repeat unit), the glass transition temperature was determined as 245.00 °C.

Turning to `*c1ccc(Oc2ccc(Oc3ccc(N4C(=O)c5ccc(Oc6ccc(Sc7ccc(Oc8ccc9c(c8)C(=O)N(*)C9=O)cc7)cc6)cc5C4=O)cc3)cc2)cc1` (repeat unit), the glass transition temperature is 201.00 °C.

Take `*c1ccc(Oc2ccc(Oc3ccc(N4C(=O)c5ccc(Oc6ccc7c(c6)C(=O)N(*)C7=O)cc5C4=O)cc3C(F)(F)F)cc2)cc1` (repeat unit): the glass transition temperature stood at 232.30 °C.

`*c1ccc(Oc2ccc(Oc3ccc(N4C(=O)c5ccc(Oc6ccc7ccc(Oc8ccc9c(c8)C(=O)N(*)C9=O)cc7c6)cc5C4=O)cc3)cc2)cc1` (repeat unit): the glass transition temperature was found to be 228.00 °C.

For the compound `*c1ccc(Oc2cccc(-c3cc(-c4ccccc4)cc(-c4cccc(Oc5ccc(N6C(=O)c7ccc(Oc8ccc9c(c8)C(=O)N(*)C9=O)cc7C6=O)cc5)c4)n3)c2)cc1` (repeat unit), the glass transition temperature is 224.00 °C.

As to `*c1ccc(Oc2cccc(N3C(=O)c4ccc(Oc5ccc6cc(Oc7ccc8c(c7)C(=O)N(*)C8=O)ccc6c5)cc4C3=O)c2)cc1` (repeat unit), the glass transition temperature came to 225.00 °C.

Consider `*c1ccc(Oc2cccc(N3C(=O)c4ccc(Oc5ccc6ccc(Oc7ccc8c(c7)C(=O)N(*)C8=O)cc6c5)cc4C3=O)c2)cc1` (repeat unit), for which the glass transition temperature was determined as 221.00 °C.

As to `*c1ccc(Oc2cccc(Oc3ccc(N4C(=O)c5cccc(Oc6ccc(Sc7ccc(Oc8cccc9c8C(=O)N(*)C9=O)cc7)cc6)c5C4=O)cc3)c2)cc1` (repeat unit), the glass transition temperature stood at 202.00 °C.

In the case of `*c1ccc(S(=O)(=O)c2ccc(-n3nc(-c4ccccc4)c4ccc(Oc5ccc6c(-c7ccccc7)nn(*)c(=O)c6c5)cc4c3=O)cc2)cc1` (repeat unit), the glass transition temperature turned out to be 294.50 °C.

The compound `*c1ccc(Sc2ccc(Sc3ccc(Sc4ccc(N5C(=O)c6ccc(Oc7ccc8c(c7)C(=O)N(*)C8=O)cc6C5=O)cc4)cc3)cc2)cc1` (repeat unit) gave a glass transition temperature of 202.7 °C.

Turning to `*c1ccc2cc(OC(=O)c3ccc(C(=O)Oc4ccc5cc(-c6nc7ccccc7nc6*)ccc5c4)cc3)ccc2c1` (repeat unit), the glass transition temperature worked out at 136.00 °C.

In the case of `*c1cccc(-c2nc3cc(Oc4ccc5nc(-c6ccccc6)c(*)nc5c4)ccc3nc2-c2ccccc2)c1` (repeat unit), the glass transition temperature was determined as 270.00 °C.

`*c1cccc(C(F)(F)C(F)(F)C(F)(F)C(F)(F)C(F)(F)c2cccc(N3C(=O)c4ccc(Oc5ccc6c(c5)C(=O)N(*)C6=O)cc4C3=O)c2)c1` (repeat unit) came in with a glass transition temperature of 157.00 °C.

The compound `*c1cccc(C(F)(F)C(F)(F)C(F)(F)c2cccc(N3C(=O)c4ccc(Oc5ccc6c(c5)C(=O)N(*)C6=O)cc4C3=O)c2)c1` (repeat unit) came in with a glass transition temperature of 183.00 °C.

Consider `*c1cccc(N2C(=O)c3ccc(Oc4ccc5cc(Oc6ccc7c(c6)C(=O)N(*)C7=O)ccc5c4)cc3C2=O)c1` (repeat unit), for which the glass transition temperature is 230.00 °C.

Compound `*c1cccc(Oc2ccc(C#N)c(Oc3cccc(N4C(=O)c5ccc(Oc6ccc7c(c6)C(=O)N(*)C7=O)cc5C4=O)c3)c2)c1` (repeat unit) returned a glass transition temperature of 196.00 °C.

The compound `*c1cccc(Oc2cccc(Oc3cccc(N4C(=O)c5ccc(Oc6ccc(Sc7ccc(Oc8ccc9c(c8)C(=O)N(*)C9=O)cc7)cc6)cc5C4=O)c3)c2)c1` (repeat unit) gave a glass transition temperature of 190.50 °C.

Compound `*c1cccc(Oc2cccc(Oc3cccc(N4C(=O)c5ccc(Oc6ccc7c(c6)C(=O)N(*)C7=O)cc5C4=O)c3)c2C#N)c1` (repeat unit) displayed a glass transition temperature of 219.00 °C.

`*c1cccc(P(=O)(c2ccc(C(F)(F)F)cc2)c2cccc(N3C(=O)c4ccc(Oc5ccc6c(c5)C(=O)N(*)C6=O)cc4C3=O)c2)c1` (repeat unit) yielded a glass transition temperature of 248.00 °C.

In the case of `*c1cccc(P(=O)(c2ccc(Oc3ccc(C45CC6CC(CC(C6)C4)C5)cc3)cc2)c2cccc(N3C(=O)c4ccc(Oc5ccc6c(c5)C(=O)N(*)C6=O)cc4C3=O)c2)c1` (repeat unit), the glass transition temperature came out at 290.00 °C.

Regarding `*c1cccc(P(=O)(c2cccc(N3C(=O)c4ccc(Oc5ccc6c(c5)C(=O)N(*)C6=O)cc4C3=O)c2)c2cc(C(F)(F)F)cc(C(F)(F)F)c2)c1` (repeat unit), the glass transition temperature amounted to 228.00 °C.

`*c1cccc(P(=O)(c2ccccc2)c2cccc(N3C(=O)c4ccc(Oc5ccc6c(c5)C(=O)N(*)C6=O)cc4C3=O)c2)c1` (repeat unit) gave a glass transition temperature of 251.00 °C.
